Measured values: the NIST ThermoML archive (doi:10.1016/j.jct.2007.09.008)
Numbers after ± are expanded uncertainties.

Conditions: Liquid, Closed cell (Static) method

vapor or sublimation pressure (293.2 K) | vapor or sublimation pressure (313.1 K) | vapor or sublimation pressure (323.2 K) | vapor or sublimation pressure (333.1 K) | vapor or sublimation pressure (283.2 K) | vapor or sublimation pressure (292.9 K) | vapor or sublimation pressure (302.9 K) | vapor or sublimation pressure (323.1 K) | vapor or sublimation pressure (333.2 K) | vapor or sublimation pressure (343.2 K) | Structure (SMILES) | vapor or sublimation pressure (283.1 K) | vapor or sublimation pressure (293.1 K) | vapor or sublimation pressure (303.1 K) | vapor or sublimation pressure (312.9 K) | vapor or sublimation pressure (323.3 K) | vapor or sublimation pressure (333.3 K) | vapor or sublimation pressure (343.1 K)
 |  |  |  |  |  |  |  |  |  | CCC1CCC(=O)O1 (stereo unspecified) [2(3H)-furanone, 5-ethyldihydro-] | 0.075 ± 0.008 kPa | 0.128 ± 0.008 kPa | 0.221 ± 0.008 kPa | 0.356 ± 0.016 kPa | 0.564 ± 0.019 kPa | 0.862 ± 0.027 kPa | 1.367 ± 0.1 kPa
0.011 ± 0.006 kPa | 0.054 ± 0.004 kPa | 0.103 ± 0.006 kPa | 0.191 ± 0.01 kPa |  |  |  |  |  |  | CC1CCCC(=O)O1 (stereo unspecified) [2H-pyran-2-one, tetrahydro-6-methyl-] | 0.005 ± 0.002 kPa |  | 0.025 ± 0.016 kPa |  |  |  | 0.354 ± 0.02 kPa
 | 0.213 ± 0.008 kPa |  |  | 0.045 ± 0.002 kPa | 0.079 ± 0.003 kPa | 0.131 ± 0.006 kPa | 0.339 ± 0.012 kPa | 0.518 ± 0.021 kPa | 0.768 ± 0.031 kPa | O=C1CCCCCO1 [6-hexanolactone] |  |  |  |  |  |  | 
